Experimental data from PubChem BioAssay (NCI).
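48-hour exposure; five concentrations; linearly interpolated endpoints. Definition used: TGI = concentration required for complete inhibition of growth.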

What was measured:
Experiment in all cases: NCI-60 cell line screen, 48 h
786-0 renal = system: 786-0 renal
A498 renal = system: A498 renal
A549 NSCLC = system: A549 NSCLC
ACHN renal = system: ACHN renal
BT-549 breast = system: BT-549 breast
CAKI-1 renal = system: CAKI-1 renal
CCRF-CEM leukemia = system: CCRF-CEM leukemia
COLO 205 colon = system: COLO 205 colon
DU-145 prostate = system: DU-145 prostate
EKVX NSCLC = system: EKVX NSCLC
HCC-2998 colon = system: HCC-2998 colon
HCT-116 colon = system: HCT-116 colon
HCT-15 colon = system: HCT-15 colon
HL-60(TB) leukemia = system: HL-60(TB) leukemia
HOP-62 NSCLC = system: HOP-62 NSCLC
HOP-92 NSCLC = system: HOP-92 NSCLC
HS 578T breast = system: HS 578T breast
HT29 colon = system: HT29 colon
IGROV1 ovarian = system: IGROV1 ovarian
K-562 leukemia = system: K-562 leukemia
KM12 colon = system: KM12 colon
LOX IMVI melanoma = system: LOX IMVI melanoma
M14 melanoma = system: M14 melanoma
MALME-3M melanoma = system: MALME-3M melanoma
MCF7 breast = system: MCF7 breast
MDA-MB-231 breast = system: MDA-MB-231 breast
MDA-MB-435 = system: MDA-MB-435
MDA-N = system: MDA-N
MOLT-4 leukemia = system: MOLT-4 leukemia
NCI-H226 lung = system: NCI-H226 lung
NCI-H23 lung = system: NCI-H23 lung
NCI-H460 lung = system: NCI-H460 lung
NCI-H522 lung = system: NCI-H522 lung
NCI/ADR-RES ovarian = system: NCI/ADR-RES ovarian
OVCAR-3 ovarian = system: OVCAR-3 ovarian
OVCAR-4 ovarian = system: OVCAR-4 ovarian
OVCAR-5 ovarian = system: OVCAR-5 ovarian
OVCAR-8 ovarian = system: OVCAR-8 ovarian
PC-3 prostate = system: PC-3 prostate
RPMI-8226 leukemia = system: RPMI-8226 leukemia
RXF 393 renal = system: RXF 393 renal
SF-268 CNS = system: SF-268 CNS
SF-295 CNS = system: SF-295 CNS
SF-539 CNS = system: SF-539 CNS
SK-MEL-2 melanoma = system: SK-MEL-2 melanoma
SK-MEL-28 melanoma = system: SK-MEL-28 melanoma
SK-MEL-5 melanoma = system: SK-MEL-5 melanoma
SK-OV-3 ovarian = system: SK-OV-3 ovarian
SN12C renal = system: SN12C renal
SNB-19 CNS = system: SNB-19 CNS
SNB-75 CNS = system: SNB-75 CNS
SR leukemia = system: SR leukemia
SW-620 colon = system: SW-620 colon
T-47D breast = system: T-47D breast
TK-10 renal = system: TK-10 renal
U251 CNS = system: U251 CNS
UACC-257 melanoma = system: UACC-257 melanoma
UO-31 renal = system: UO-31 renal
UACC-62 melanoma = system: UACC-62 melanoma

COc1cc2c(cc1OC)C(=O)/C(=C/c1ccccc1)CC2
TGI (786-0 renal): > 100 µM
TGI (A498 renal): 44.8 µM
TGI (A549 NSCLC): > 100 µM
TGI (ACHN renal): > 100 µM
TGI (BT-549 breast): 74.1 µM
TGI (CAKI-1 renal): 48.3 µM
TGI (CCRF-CEM leukemia): > 100 µM
TGI (COLO 205 colon): 38.8 µM
TGI (DU-145 prostate): > 100 µM
TGI (EKVX NSCLC): > 100 µM
TGI (HCC-2998 colon): 54.9 µM
TGI (HCT-116 colon): > 100 µM
TGI (HCT-15 colon): 50.3 µM
TGI (HL-60(TB) leukemia): 17.2 µM
TGI (HOP-62 NSCLC): > 100 µM
TGI (HOP-92 NSCLC): 67.3 µM
TGI (HS 578T breast): > 100 µM
TGI (HT29 colon): 46.2 µM
TGI (IGROV1 ovarian): > 100 µM
TGI (K-562 leukemia): > 100 µM
TGI (KM12 colon): 35.5 µM
TGI (LOX IMVI melanoma): > 100 µM
TGI (M14 melanoma): > 100 µM
TGI (MALME-3M melanoma): > 100 µM
TGI (MCF7 breast): > 100 µM
TGI (MDA-MB-231 breast): > 100 µM
TGI (MDA-MB-435): > 100 µM
TGI (MDA-N): > 100 µM
TGI (MOLT-4 leukemia): 71.2 µM
TGI (NCI-H226 lung): 74.6 µM
TGI (NCI-H23 lung): > 100 µM
TGI (NCI-H460 lung): > 100 µM
TGI (NCI-H522 lung): > 100 µM
TGI (NCI/ADR-RES ovarian): 70 µM
TGI (OVCAR-3 ovarian): > 100 µM
TGI (OVCAR-4 ovarian): > 100 µM
TGI (OVCAR-5 ovarian): > 100 µM
TGI (OVCAR-8 ovarian): > 100 µM
TGI (PC-3 prostate): > 100 µM
TGI (RPMI-8226 leukemia): > 100 µM
TGI (RXF 393 renal): > 100 µM
TGI (SF-268 CNS): > 100 µM
TGI (SF-295 CNS): 41.1 µM
TGI (SF-539 CNS): > 100 µM
TGI (SK-MEL-2 melanoma): 29.8 µM
TGI (SK-MEL-28 melanoma): > 100 µM
TGI (SK-MEL-5 melanoma): 35.2 µM
TGI (SK-OV-3 ovarian): 97.5 µM
TGI (SN12C renal): > 100 µM
TGI (SNB-19 CNS): > 100 µM
TGI (SNB-75 CNS): > 100 µM
TGI (SR leukemia): > 100 µM
TGI (SW-620 colon): > 100 µM
TGI (T-47D breast): > 100 µM
TGI (TK-10 renal): > 100 µM
TGI (U251 CNS): > 100 µM
TGI (UACC-257 melanoma): > 100 µM
TGI (UO-31 renal): > 100 µM

C/C(=N\NC(=S)NCCNC(=S)N/N=C(\C)c1ccccn1)c1ccccn1
TGI (786-0 renal): 6.05 µM
TGI (A498 renal): 37.5 µM
TGI (A549 NSCLC): > 100 µM
TGI (ACHN renal): > 28.5 µM
TGI (BT-549 breast): 47.8 µM
TGI (CAKI-1 renal): > 89.7 µM
TGI (CCRF-CEM leukemia): > 26.1 µM
TGI (COLO 205 colon): > 29.2 µM
TGI (DU-145 prostate): > 100 µM
TGI (EKVX NSCLC): > 100 µM
TGI (HCC-2998 colon): > 100 µM
TGI (HCT-116 colon): 31.4 µM
TGI (HCT-15 colon): > 25.9 µM
TGI (HL-60(TB) leukemia): > 22.6 µM
TGI (HOP-62 NSCLC): 12.5 µM
TGI (HOP-92 NSCLC): > 100 µM
TGI (HS 578T breast): > 100 µM
TGI (HT29 colon): > 100 µM
TGI (IGROV1 ovarian): > 31.5 µM
TGI (K-562 leukemia): > 100 µM
TGI (KM12 colon): > 100 µM
TGI (LOX IMVI melanoma): 30.9 µM
TGI (M14 melanoma): 4.27 µM
TGI (MALME-3M melanoma): > 78.8 µM
TGI (MCF7 breast): > 100 µM
TGI (MDA-MB-231 breast): > 70.9 µM
TGI (MDA-MB-435): > 100 µM
TGI (MDA-N): > 100 µM
TGI (MOLT-4 leukemia): > 26 µM
TGI (NCI-H226 lung): > 26.9 µM
TGI (NCI-H23 lung): > 63.8 µM
TGI (NCI-H460 lung): > 20.2 µM
TGI (NCI-H522 lung): > 100 µM
TGI (NCI/ADR-RES ovarian): 6.06 µM
TGI (OVCAR-3 ovarian): > 100 µM
TGI (OVCAR-4 ovarian): > 71.2 µM
TGI (OVCAR-5 ovarian): > 100 µM
TGI (OVCAR-8 ovarian): > 100 µM
TGI (PC-3 prostate): > 100 µM
TGI (RPMI-8226 leukemia): 9.67 µM
TGI (RXF 393 renal): > 100 µM
TGI (SF-268 CNS): 49 µM
TGI (SF-295 CNS): > 100 µM
TGI (SF-539 CNS): 6.63 µM
TGI (SK-MEL-2 melanoma): > 100 µM
TGI (SK-MEL-28 melanoma): > 100 µM
TGI (SK-OV-3 ovarian): > 100 µM
TGI (SN12C renal): 7.31 µM
TGI (SNB-19 CNS): > 100 µM
TGI (SNB-75 CNS): 11.2 µM
TGI (SR leukemia): 2.53 µM
TGI (SW-620 colon): > 100 µM
TGI (T-47D breast): > 29.3 µM
TGI (TK-10 renal): > 30 µM
TGI (U251 CNS): > 48.6 µM
TGI (UACC-257 melanoma): 22.3 µM
TGI (UACC-62 melanoma): 11.7 µM
TGI (UO-31 renal): > 100 µM
